Data on ten molecules can be found in PubChem BioAssay (NCI).

SMILES strings stand for the structures.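 How tested: cells in 96-well plates exposed to compound for 48 hours at five concentrations. Here, GI50 denotes the concentration required for 50% inhibition of growth. The concentration for full growth arrest is given as TGI.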

Some test systems named below: ACHN renal; DU-145 prostate; IGROV1 ovarian; KM12 colon; M14 melanoma; NCI-H226 lung; NCI-H522 lung; RPMI-8226 leukemia; SNB-19 CNS; U251 CNS.
Common to all, as to experiment: NCI tumour cell line growth inhibition, 48 h

For the molecule `C=CCn1c(-c2ccc(Cl)cc2Cl)csc1=Nc1c(C)n(C)n(-c2ccccc2)c1=O`, the TGI with ACHN renal is 27.7 µM; in the experiment on DU-145 prostate, 27.3 µM; in the experiment on IGROV1 ovarian, 31.5 µM; with KM12 colon, 29.3 µM; with M14 melanoma it was 23.8 µM; with NCI-H226 lung, 33 µM. Also, the TGI was 29.6 µM in the experiment on NCI-H522 lung, greater than 46.3 µM with RPMI-8226 leukemia, 24.7 µM in the experiment on SNB-19 CNS and 25.1 µM in the experiment with U251 CNS.
As to `CCOP(C)(=O)/C(Cc1ccc(OC)c(OC)c1)=N\O` (stereo unspecified), the TGI with ACHN renal, in the experiment with DU-145 prostate, with IGROV1 ovarian, in the experiment with KM12 colon, in the experiment with M14 melanoma and with NCI-H226 lung was greater than 100 µM throughout. Besides, the TGI with NCI-H522 lung, in the experiment on RPMI-8226 leukemia, in the experiment on SNB-19 CNS and in the experiment on U251 CNS was greater than 100 µM each time.
With `CCCCN1C(=O)CS/C1=N/Nc1nc2c([nH]1)c(=O)n(C)c(=O)n2C`, the TGI in the experiment with ACHN renal, in the experiment on DU-145 prostate, in the experiment with IGROV1 ovarian, with KM12 colon, with M14 melanoma and in the experiment on NCI-H226 lung was greater than 100 µM throughout. The TGI in the experiment on NCI-H522 lung, with RPMI-8226 leukemia, in the experiment on SNB-19 CNS and with U251 CNS was greater than 100 µM in each case.
Consider `COc1cc(Nc2nc3ccccc3nc2C(C)C)cc(OC)c1OC`, for which the TGI in the experiment on ACHN renal, with DU-145 prostate, in the experiment on IGROV1 ovarian, with KM12 colon, in the experiment with M14 melanoma and in the experiment with NCI-H226 lung was greater than 100 µM each time. The TGI in the experiment with NCI-H522 lung, with RPMI-8226 leukemia, in the experiment on SNB-19 CNS and in the experiment with U251 CNS was greater than 100 µM in each case.
Consider `O[C@H]1[C@H](O)[C@@H](Cn2nnc(-c3ccccc3)c2-c2ccccc2)OCO[C@@H]1Cn1nnc(-c2ccccc2)c1-c1ccccc1`, for which the TGI with ACHN renal is 13.6 µM; with DU-145 prostate, 23.2 µM; in the experiment with IGROV1 ovarian, 14.2 µM; in the experiment with KM12 colon, 11.6 µM; with M14 melanoma it was 11.7 µM; with NCI-H226 lung, greater than 45.4 µM. Also, the TGI was 21.5 µM in the experiment on NCI-H522 lung, 5.79 µM with RPMI-8226 leukemia, 55.4 µM in the experiment on SNB-19 CNS and greater than 41 µM with U251 CNS.
In the case of `CC(C)(SCc1ccccc1)C(N)C(=O)O` (stereo unspecified), the TGI in the experiment on ACHN renal, with DU-145 prostate, in the experiment with IGROV1 ovarian, with KM12 colon, in the experiment on M14 melanoma and with NCI-H226 lung was greater than 100 µM in each case. Moreover, the TGI in the experiment on NCI-H522 lung, with RPMI-8226 leukemia, with SNB-19 CNS and with U251 CNS was greater than 100 µM throughout.
As to `O=C1CCCC[C@H]1C(O)CC1CC(=O)N(c2ccccc2)C(=O)C1` (stereo partly specified), the TGI in the experiment with ACHN renal, with DU-145 prostate, with IGROV1 ovarian, in the experiment on KM12 colon, in the experiment with M14 melanoma and in the experiment on NCI-H226 lung was greater than 100 µM in each case. Besides, the TGI in the experiment on NCI-H522 lung, in the experiment on RPMI-8226 leukemia, in the experiment on SNB-19 CNS and in the experiment with U251 CNS was greater than 100 µM in each case.
As for `CC[C@H]1C=CCC[C@@]2(C[C@@H]3CC[C@@H]4[C@H](C(=O)OCCCCCCCCCCCCCCCC(=O)N(CCCNC(C)=O)C[C@H](CCNC(C)=O)OC(C)=O)[C@]5(CCC[C@@H](C)O5)NC(=[N+]34)N2)O1`, the TGI in the experiment on ACHN renal is 1.37 µM; in the experiment on DU-145 prostate it was 1.59 µM; in the experiment with IGROV1 ovarian it was 1.9 µM; in the experiment on KM12 colon, 1.75 µM; in the experiment with M14 melanoma, 0.34 µM; in the experiment on NCI-H226 lung, 1.88 µM. Moreover, the TGI with NCI-H522 lung was found to be 0.287 µM; in the experiment on RPMI-8226 leukemia, 0.242 µM; in the experiment on SNB-19 CNS it was 2.22 µM; with U251 CNS, 1.11 µM. In the experiment on RPMI-8226 leukemia, the GI50 was 0.0406 µM.
As for `Oc1ccccc1-c1nn2c(CCCCCCCCc3nnc4sc(-c5ccccc5O)nn34)nnc2s1`, the TGI in the experiment on ACHN renal was greater than 100 µM; in the experiment on DU-145 prostate it was greater than 75.5 µM; with IGROV1 ovarian, greater than 100 µM; in the experiment with KM12 colon, greater than 100 µM; with M14 melanoma, greater than 77.7 µM; in the experiment on NCI-H226 lung it was greater than 100 µM. Further, the TGI is 82.5 µM in the experiment with NCI-H522 lung, greater than 100 µM in the experiment with RPMI-8226 leukemia, greater than 100 µM in the experiment on SNB-19 CNS and greater than 100 µM with U251 CNS.
Regarding `Cc1cc(C)c2c(=O)cc(-c3ccc4ccccc4c3)[nH]c2n1`, the TGI was greater than 100 µM in the experiment with ACHN renal; greater than 100 µM with DU-145 prostate; 99.7 µM in the experiment on IGROV1 ovarian; greater than 52.7 µM with KM12 colon; 67.5 µM with M14 melanoma; greater than 100 µM in the experiment with NCI-H226 lung. The TGI is 72.5 µM in the experiment on NCI-H522 lung, 27.8 µM with RPMI-8226 leukemia, greater than 100 µM with SNB-19 CNS and 65.7 µM in the experiment with U251 CNS.
